In patent US11912663B2, “Multi-targeted tyrosine kinase inhibitors and their pharmaceutical uses” (Shanghai AB PharmaTech Ltd., priority 2021, dated 2024):

System: pancreatic cancer cell line (BXPC3)
Assay: tumor cell proliferation inhibition (CTG), pancreatic cancer cell line
Assay type: cell-based
Settings: Homo sapiens, BXPC-3, 72 hours

Row | Compound | IC50
1 | COc1cc2nccc(Oc3c(F)cc(NC(=O)NC4CC4)c(Cl)c3F)c2cc1C(=O)N(C)C [IIIb-03] | > 10 µM
2 | COc1cc2nccc(Oc3c(F)cc(NC(=O)NC4CC4)c(Cl)c3F)c2cc1C(=O)Nc1cn[nH]c1 [IIIb-52] | > 10 µM
3 | CNC(=O)c1cc2c(Oc3c(F)cc(NC(=O)NC4CC4)c(Cl)c3F)ccnc2cc1OC [IIIb-01] | > 10 µM
4 | COc1cc2nccc(Oc3c(F)cc(NC(=O)NC4CC4)c(Cl)c3F)c2cc1C(=O)NC(C)(C)C#N [IIIb-47] | > 10 µM
5 | COc1cc2nccc(Oc3c(F)cc(NC(=O)NC4CC4)c(Cl)c3F)c2cc1C(=O)NC[C@H](O)CO [IIIb-22] | > 10 µM
6 | COc1cc2nccc(Oc3c(F)cc(NC(=O)NC4CC4)c(Cl)c3F)c2cc1C(=O)NC1CCN(C)CC1 [IIIb-28] | > 10 µM
7 | CNC(=O)c1cc2c(Oc3c(F)cc(NC(=O)NC4CC4)c(F)c3F)ccnc2cc1OC [IIIb-02] | > 10 µM
8 | COc1cc2nccc(Oc3c(F)cc(NC(=O)NC4CC4)c(Cl)c3F)c2cc1C(=O)NC(C)C#N (stereo not shown) [IIIb-46] | > 10 µM
9 | COc1cc2nccc(Oc3c(F)cc(NC(=O)NC4CC4)c(F)c3F)c2cc1C(=O)NCC(F)F [IIIb-07] | > 10 µM
10 | COc1cc2nccc(Oc3c(F)cc(NC(=O)NC4CC4)c(Cl)c3F)c2cc1C#N [IIIb-29] | > 10 µM
11 | COc1cc2nccc(Oc3c(F)cc(NC(=O)NC4CC4)c(Cl)c3F)c2cc1C(=O)NC(CO)CO [IIIb-20] | > 10 µM
12 | COc1cc2nccc(Oc3c(F)cc(NC(=O)NC4CC4)c(Cl)c3F)c2cc1C(=O)NCCN(C)C [IIIb-10] | > 10 µM
13 | COc1cc2nccc(Oc3c(F)cc(NC(=O)NC4CC4)c(Cl)c3F)c2cc1C(=O)N[C@@H](C)CO [IIIb-18] | > 10 µM
14 | COc1cc2nccc(Oc3c(F)cc(NC(=O)NC4CC4)c(Cl)c3F)c2cc1C(=O)NCCN [IIIb-51] | > 10 µM
15 | COc1cc2nccc(Oc3c(F)cc(NC(=O)NC4CC4)c(Cl)c3F)c2cc1C(=O)NCC1(C#N)CC1 [IIIb-49] | > 10 µM
16 | COc1cc2nccc(Oc3c(F)cc(NC(=O)NC4CC4)c(Cl)c3F)c2cc1C(=O)N1CC[C@@H](O)C1 [IIIb-25] | > 10 µM
17 | COc1cc2nccc(Oc3c(F)cc(NC(=O)NC4CC4)c(Cl)c3F)c2cc1C(=O)NC(C)(C)CO [IIIb-19] | > 10 µM
18 | COCCNC(=O)c1cc2c(Oc3c(F)cc(NC(=O)NC4CC4)c(Cl)c3F)ccnc2cc1OC [IIIb-05] | > 10 µM

System: lung cancer cell line (A549)
Assay: tumor cell proliferation inhibition (CTG), lung cancer cell line
Assay type: cell-based
Settings: Homo sapiens, 72 hours

Row | Compound | IC50
19 | COc1cc2nccc(Oc3c(F)cc(NC(=O)NC4CC4)c(Cl)c3F)c2cc1C(=O)N(C)C [IIIb-03] | > 5 µM
20 | COc1cc2nccc(Oc3c(F)cc(NC(=O)NC4CC4)c(Cl)c3F)c2cc1C(=O)Nc1cn[nH]c1 [IIIb-52] | > 5 µM
21 | CNC(=O)c1cc2c(Oc3c(F)cc(NC(=O)NC4CC4)c(Cl)c3F)ccnc2cc1OC [IIIb-01] | > 5 µM
22 | COc1cc2nccc(Oc3c(F)cc(NC(=O)NC4CC4)c(Cl)c3F)c2cc1C(=O)NC(C)(C)C#N [IIIb-47] | > 5 µM
23 | COc1cc2nccc(Oc3c(F)cc(NC(=O)NC4CC4)c(Cl)c3F)c2cc1C(=O)NC[C@H](O)CO [IIIb-22] | 2.5 to 5 µM
24 | COc1cc2nccc(Oc3c(F)cc(NC(=O)NC4CC4)c(Cl)c3F)c2cc1C(=O)NC1CCN(C)CC1 [IIIb-28] | > 5 µM
25 | CNC(=O)c1cc2c(Oc3c(F)cc(NC(=O)NC4CC4)c(F)c3F)ccnc2cc1OC [IIIb-02] | > 5 µM
26 | COc1cc2nccc(Oc3c(F)cc(NC(=O)NC4CC4)c(Cl)c3F)c2cc1C(=O)NC(C)C#N (stereo not shown) [IIIb-46] | > 5 µM
27 | COc1cc2nccc(Oc3c(F)cc(NC(=O)NC4CC4)c(F)c3F)c2cc1C(=O)NCC(F)F [IIIb-07] | > 5 µM
28 | COc1cc2nccc(Oc3c(F)cc(NC(=O)NC4CC4)c(Cl)c3F)c2cc1C#N [IIIb-29] | > 5 µM
29 | COc1cc2nccc(Oc3c(F)cc(NC(=O)NC4CC4)c(Cl)c3F)c2cc1C(=O)NC(CO)CO [IIIb-20] | > 5 µM
30 | COc1cc2nccc(Oc3c(F)cc(NC(=O)NC4CC4)c(Cl)c3F)c2cc1C(=O)NCCN(C)C [IIIb-10] | > 5 µM
31 | COc1cc2nccc(Oc3c(F)cc(NC(=O)NC4CC4)c(Cl)c3F)c2cc1C(=O)N[C@@H](C)CO [IIIb-18] | > 5 µM
32 | COc1cc2nccc(Oc3c(F)cc(NC(=O)NC4CC4)c(Cl)c3F)c2cc1C(=O)NCCN [IIIb-51] | > 5 µM
33 | COc1cc2nccc(Oc3c(F)cc(NC(=O)NC4CC4)c(Cl)c3F)c2cc1C(=O)NCC1(C#N)CC1 [IIIb-49] | > 5 µM
34 | COc1cc2nccc(Oc3c(F)cc(NC(=O)NC4CC4)c(Cl)c3F)c2cc1C(=O)N1CC[C@@H](O)C1 [IIIb-25] | > 5 µM
35 | COc1cc2nccc(Oc3c(F)cc(NC(=O)NC4CC4)c(Cl)c3F)c2cc1C(=O)NC(C)(C)CO [IIIb-19] | > 5 µM
36 | COCCNC(=O)c1cc2c(Oc3c(F)cc(NC(=O)NC4CC4)c(Cl)c3F)ccnc2cc1OC [IIIb-05] | > 5 µM

System: kidney cancer cell line (Caki-1)
Assay: tumor cell proliferation inhibition (CTG), kidney cancer cell line
Assay type: cell-based
Settings: Homo sapiens, 72 hours, read-out: Caki-1 (renal cancer) IC50

Row | Compound | IC50
37 | COc1cc2nccc(Oc3c(F)cc(NC(=O)NC4CC4)c(Cl)c3F)c2cc1C(=O)N(C)C [IIIb-03] | > 5 µM
38 | COc1cc2nccc(Oc3c(F)cc(NC(=O)NC4CC4)c(Cl)c3F)c2cc1C(=O)Nc1cn[nH]c1 [IIIb-52] | > 5 µM
39 | CNC(=O)c1cc2c(Oc3c(F)cc(NC(=O)NC4CC4)c(Cl)c3F)ccnc2cc1OC [IIIb-01] | > 5 µM
40 | COc1cc2nccc(Oc3c(F)cc(NC(=O)NC4CC4)c(Cl)c3F)c2cc1C(=O)NC(C)(C)C#N [IIIb-47] | > 5 µM
41 | COc1cc2nccc(Oc3c(F)cc(NC(=O)NC4CC4)c(Cl)c3F)c2cc1C(=O)NC[C@H](O)CO [IIIb-22] | 2.5 to 5 µM
42 | COc1cc2nccc(Oc3c(F)cc(NC(=O)NC4CC4)c(Cl)c3F)c2cc1C(=O)NC1CCN(C)CC1 [IIIb-28] | > 5 µM
43 | CNC(=O)c1cc2c(Oc3c(F)cc(NC(=O)NC4CC4)c(F)c3F)ccnc2cc1OC [IIIb-02] | > 5 µM
44 | COc1cc2nccc(Oc3c(F)cc(NC(=O)NC4CC4)c(Cl)c3F)c2cc1C(=O)NC(C)C#N (stereo not shown) [IIIb-46] | > 5 µM
45 | COc1cc2nccc(Oc3c(F)cc(NC(=O)NC4CC4)c(F)c3F)c2cc1C(=O)NCC(F)F [IIIb-07] | > 5 µM
46 | COc1cc2nccc(Oc3c(F)cc(NC(=O)NC4CC4)c(Cl)c3F)c2cc1C#N [IIIb-29] | > 5 µM
47 | COc1cc2nccc(Oc3c(F)cc(NC(=O)NC4CC4)c(Cl)c3F)c2cc1C(=O)NC(CO)CO [IIIb-20] | > 5 µM
48 | COc1cc2nccc(Oc3c(F)cc(NC(=O)NC4CC4)c(Cl)c3F)c2cc1C(=O)NCCN(C)C [IIIb-10] | > 5 µM
49 | COc1cc2nccc(Oc3c(F)cc(NC(=O)NC4CC4)c(Cl)c3F)c2cc1C(=O)N[C@@H](C)CO [IIIb-18] | > 5 µM
50 | COc1cc2nccc(Oc3c(F)cc(NC(=O)NC4CC4)c(Cl)c3F)c2cc1C(=O)NCCN [IIIb-51] | > 5 µM
51 | COc1cc2nccc(Oc3c(F)cc(NC(=O)NC4CC4)c(Cl)c3F)c2cc1C(=O)NCC1(C#N)CC1 [IIIb-49] | > 5 µM
52 | COc1cc2nccc(Oc3c(F)cc(NC(=O)NC4CC4)c(Cl)c3F)c2cc1C(=O)N1CC[C@@H](O)C1 [IIIb-25] | > 5 µM
53 | COc1cc2nccc(Oc3c(F)cc(NC(=O)NC4CC4)c(Cl)c3F)c2cc1C(=O)NC(C)(C)CO [IIIb-19] | > 5 µM
54 | COCCNC(=O)c1cc2c(Oc3c(F)cc(NC(=O)NC4CC4)c(Cl)c3F)ccnc2cc1OC [IIIb-05] | > 5 µM

Biological target: hERG potassium channels (Homo sapiens (Human), UniProt Q12809)
Sequence (Q12809 whole entry): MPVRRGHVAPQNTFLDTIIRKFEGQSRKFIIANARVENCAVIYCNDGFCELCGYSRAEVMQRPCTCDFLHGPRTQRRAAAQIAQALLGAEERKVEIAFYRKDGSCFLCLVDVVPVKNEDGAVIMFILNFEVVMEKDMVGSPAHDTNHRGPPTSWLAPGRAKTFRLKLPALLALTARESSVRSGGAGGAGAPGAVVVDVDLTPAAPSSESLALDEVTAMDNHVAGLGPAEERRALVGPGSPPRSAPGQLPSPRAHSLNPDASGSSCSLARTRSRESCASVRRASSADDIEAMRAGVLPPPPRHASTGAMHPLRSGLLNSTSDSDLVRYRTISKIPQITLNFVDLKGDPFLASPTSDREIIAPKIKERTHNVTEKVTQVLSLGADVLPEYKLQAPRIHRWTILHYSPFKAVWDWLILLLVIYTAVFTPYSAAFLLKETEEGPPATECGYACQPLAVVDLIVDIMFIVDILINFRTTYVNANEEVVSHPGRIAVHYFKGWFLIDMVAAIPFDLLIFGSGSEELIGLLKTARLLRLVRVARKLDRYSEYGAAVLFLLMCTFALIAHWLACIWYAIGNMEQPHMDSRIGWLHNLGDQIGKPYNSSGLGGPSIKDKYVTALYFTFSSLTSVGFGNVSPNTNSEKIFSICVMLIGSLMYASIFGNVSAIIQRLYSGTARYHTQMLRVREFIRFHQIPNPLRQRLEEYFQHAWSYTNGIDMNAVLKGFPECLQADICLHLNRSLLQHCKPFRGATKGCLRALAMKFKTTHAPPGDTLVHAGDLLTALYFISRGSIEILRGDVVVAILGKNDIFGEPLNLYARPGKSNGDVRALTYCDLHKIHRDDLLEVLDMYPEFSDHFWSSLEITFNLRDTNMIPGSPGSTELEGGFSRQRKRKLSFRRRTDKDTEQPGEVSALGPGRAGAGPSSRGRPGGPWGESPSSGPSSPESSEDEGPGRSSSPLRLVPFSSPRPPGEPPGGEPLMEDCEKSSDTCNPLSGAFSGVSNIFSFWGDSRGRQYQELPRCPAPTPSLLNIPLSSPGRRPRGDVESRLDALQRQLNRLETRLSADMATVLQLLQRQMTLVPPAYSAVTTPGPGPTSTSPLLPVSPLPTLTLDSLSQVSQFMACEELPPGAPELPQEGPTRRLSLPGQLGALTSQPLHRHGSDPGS
Assay: in vitro inhibitory effect of hERG, whole-cell patch clamp
Assay type: cell-based
Settings: whole-cell recording, room temperature

Row | Compound | IC50
55 | CNC(=O)c1cc(Oc2ccc(NC(=O)Nc3ccc(Cl)c(C(F)(F)F)c3)cc2)ccn1 [Sorafenib, sorafenib, reference compound] | > 10 µM
56 | CNC(=O)c1cc2c(Oc3c(F)cc(NC(=O)NC4CC4)c(Cl)c3F)ccnc2cc1OC [IIIb-01] | > 30 µM

System: not listed separately
Assay: MTD toxicity test in rats
Assay type: in vivo
Settings: rat, in vivo, 150 mg/kg; in rats; read-out: MTD toxicity dose

Row | Compound | MTD at 14 days
57 | CNC(=O)c1cc2c(Oc3c(F)cc(NC(=O)NC4CC4)c(Cl)c3F)ccnc2cc1OC [IIIb-01] | > 150 mg/kg

Same assay, conditions: rat, in vivo; toxicity study for MTD, species not stated

Row | Compound | MTD
58 | CNC(=O)c1cc2c(Oc3c(F)cc(NC(=O)NC4CC4)c(Cl)c3F)ccnc2cc1OC [IIIb-01] | 300 mg/kg
